Laboratory results published in US8859544B2, “Indolizine derivatives, process for the preparation thereof and therapeutic use thereof” (Sanofi, priority 2010, dated 2014).
“And” between values parts separate entries of the source, which are not always exact repeats. Identical values can stand only once. Blank lines part the entries; values can stand above or below the molecule they belong to.

How the values were obtained:
[1] = tested on: HUVEC cells stimulated with FGF-2; experiment: FGF-2-induced in vitro angiogenesis of HUVEC cells; format: cell-based, human; conditions: as a percentage of the control
Procedure: To do this, matrices composed of matrigel (growth factor reduced matrigel, Becton Dickinson 356230) and collagen (rat tail collagen type I, Becton Dickinson 354236) are deposited, at a rate of 160 μl, into each chamberslide well (Biocoat Cellware collagen, Type I, 8-well culturesides: Becton Dickinson 354630), or 60 μl per well of 96-well plates (Biocoat collagen I cellware, Becton Dickinson 354407). The matrix is prepared by mixing ⅓ of matrigel, 1 mg/ml final concentration of collagen, NaOH (0.1N) (0.026× the volume of collagen in μl) and 1×PBS, and the volume is then adjusted with water. The gels are kept at 37° C. for 1 hour so as to allow them to polymerize. Next, the human vein endothelial cells (HUVECs ref: C-12200-Promocell) were seeded at 15×10^3 or 6×10^3 cells/well in 400 or 120 μl (for the 8-well or 96-well plates respectively) of EBM medium (Clonetics C3121)+2% FBS+10 μg/ml hEGF. They were stimulated with 1 or 3 ng/ml of FGF-2 (R&D systems, 133-FB-025; Invitrogen, PHG0026) for 24 h at 37° C. in the presence of 5% CO2. After 24 hours, the length of the network of microtubules formed was measured using a computer-assisted image analysis system (Imagenia Biocom, Courtaboeuf, France) and the total length of the pseudotubules in each well was determined. The average total length of the microcapillary network was calculated in μm for each condition corresponding to the average of 6 replicates.
Stimulation with FGF2 makes it possible to induce the formation of new tubules. An FGF-R antagonist is considered to be active in this test as long as it is capable of partially inhibiting this angiogenesis at a dose less than or equal to 300 nM.

[2] = tested on: HUVEC cells stimulated with FGF-2; experiment: FGF-2-induced in vitro proliferation of HUVEC cells; format: cell-based, human; conditions: inhibition of proliferation as percentage of the control
Procedure: To do this, HUVEC human vein endothelial cells (promocell, C-12200) are seeded at a rate of 5000 cells per well of a 96-well plate (Biocoat collagen I cellware, Becton Dickinson 354650) in 100 μl of RPMI 1640 deprivation medium (Invitrogen, 31872-025) supplemented with 0.5% or 1% FCS, 2 mM glutamine, 1× sodium pyruvate (Invitrogen, 11360-039) and 1×NEAA (Invitrogen, 11140-035), overnight at 37° C. in the presence of 5% CO2. The following morning, the medium is suctioned-off and replaced with 50 μl of deprivation medium containing the antagonists at a 2× concentration, to which are added 50 μl of FGF-2 (R&D systems, 133-FB-025; Invitrogen, PHG0026) at 0.2 ng/ml (i.e. 2×). After 48 or 72 h, 100 μl of Cell Titer-GLOW Luminescent Cell Viability Assay (Promega, G7571) are added for 10 min in order to measure, by means of a luminometer, the amount of ATP present in the cells and which is in relation to the number of cells per well corresponding to the cell proliferation.
The antagonists of the present invention are considered to be active as long as they are capable of inhibiting FGF-2-induced proliferation of HUVEC cells at a dose less than or equal to 300 nM.

[3] = tested on: inflammatory angiogenesis in mice; experiment: Model of inflammatory angiogenesis in mice; format: in vivo; conditions: for % inhibition of the angiogenic parameter (dye content) / % inhibition of the inflammatory parameter (mass of the granuloma): mice, daily oral treatment
Procedure: The model is developed on OF1 female mice (Charles River Laboratories) weighing approximately 25 g, and by groups of 12. The animals are anaesthetized with sodium pentobarbital (60 mg/kg; Sanofi Nutrition Santé animale)) intraperitoneally. An air pocket is created on the back of the mouse by subcutaneous injection of 3 ml of air. […] Seven days later, the mice are again anaesthetized and placed on a hot plate at 40° C. One ml of carmine red (Aldrich Chemicals, 5% in 10% of gelatin) is injected into the tail vein. The animals are then placed at 4° C. for 2-3 hours. The skins are then taken and dried for 24 h in an oven at 56° C. The dry tissues are weighed and placed in 1.8 ml of digestion solution (2 mM dithiothreitol, 20 mM Na2HPO4, 1 mM EDTA, 12 U/ml papain) for 24 h. The dye is then dissolved in 0.2 ml of 5M NaOH. The skins are centrifuged at 2000 rpm for 10 min at ambient temperature. The supernatants are filtered through 0.2 μm cellulose acetate membranes. The filtrates are read in a spectrophotometer at 492 nm against a carmine red calibration range. Two parameters are studied: the dry weight of the granuloma and the amount of dye after digestion of the tissues. The results are expressed as mean values (±sem). The differences between the groups are tested with an ANOVA followed by a Dunnett's test, of which the reference group is the “solvent control” group.
The FGF-R antagonists are evaluated between 1 and 50 mg/kg using methylcellulose/tween (0.6% v/v) as vehicle or any other vehicle which allows the active ingredient to be solubilized. The molecules are administered daily, orally (one or two times a day) by gavage.

- melting point: 215 °C
SMILES: CCCn1c(=O)[nH]c2ccc(C(=O)c3c(C)c(OCCOC)c4ccccn34)cc2c1=O [Compound No. 48, 6-{[1(2-Methoxyethoxy)-2-methylindolizin-3-yl]carbonyl}-3-propylquinazoline-2,4(1H,3H)-dione]

- melting point: 230 °C
SMILES: CCOC(=O)COn1c(=O)[nH]c2ccc(C(=O)c3c(C)c(OC)c4ccccn34)cc2c1=O [Compound No. 34, Ethyl({6-[(1-methoxy-2-methylindolizin-3-yl)carbonyl]-2,4-dioxo-1,4-dihydroquinazolin-3(2H)-yl}oxy)acetate]

- melting point: 220 °C
SMILES: COc1c(C)c(C(=O)c2ccc3[nH]c(=O)n(N)c(=O)c3c2)n2ccccc12 [Compound No. 51, 3-Amino-6-[(1-methoxy-2-methylindolizin-3yl)carbonyl]quinazoline-2,4(1H,3H)-dione]

Further lines, the molecule ahead of its results:

SMILES: COc1c(C)c(C(=O)c2ccc3[nH]c(=O)n(Cc4nc(C)no4)c(=O)c3c2)n2ccccc12 [Compound No. 36, 6-[(1-Methoxy-2-methylindolizin-3-yl)carbonyl]-3-[(3-methyl-1,2,4-oxadiazol-5-yl)methyl]quinazoline-2,4(1H,3H)-dione]
- melting point: 176 °C

SMILES: CNC(=O)c1cn(C)c2ccc(C(=O)c3c(C)cc4ccccn34)cc2c1=O [Compound No. 105, N-1-Dimethyl-6-[(2-methylindolizin-3-yl)carbonyl]-4-oxo-1,4-dihydroquinoline-3-carboxamide]
- Percentage inhibition of angiogenesis (%) ([1]; 3 nM): 25%
- Percentage inhibition of angiogenesis (%) ([1]; 30 nM): 105%
- Percentage inhibition of angiogenesis (%) ([2]; 30 nM): 14%
- Percentage inhibition of angiogenesis (%) ([2]; 300 nM): 123%

SMILES: CNC(=O)c1c[nH]c2ccc(C(=O)c3c(C)c(OC)c4ccccn34)cc2c1=O [Compound No. 96, 6-[(1-Methoxy-2-methylindolizin-3-yl)carbonyl]-N-methyl-4-oxo-1,4-dihydroquinoline-3-carboxamide]
- inhibition at 0.003 µM ([1]; Homo sapiens, 3 nM): 123%
- inhibition at 0.03 µM ([1]; Homo sapiens, 30 nM): 129%
- inhibition at 0.03 µM ([2]; Homo sapiens, 30 nM, read-out: Percentage inhibition of angiogenesis (%)): 123%
- inhibition at 0.3 µM ([2]; Homo sapiens, 300 nM, read-out: Percentage inhibition of angiogenesis (%)): 129%
- melting point: 324 °C

SMILES: COc1c(C)c(C(=O)c2ccc3nc(C)[nH]c(=O)c3c2)n2ccccc12 [Compound No. 15, 6-[(1-Methoxy-2-methylindolizin-3-yl)carbonyl]-2-methylquinazolin-4(3H)-one]
- % inhibition of the angiogenic parameter (dye content) ([3]; 30 mg/kg): 21%
- % inhibition of the inflammatory parameter (mass of the granuloma) ([3]; 30 mg/kg): 21%
- melting point: 290 °C and 287 °C

SMILES: COc1c(C)c(C(=O)c2ccc3[nH]c(=O)n(CC(=O)N(C)C)c(=O)c3c2)n2ccccc12 [Compound No. 35, 2-{6-[(1-Methoxy-2-methylindolizin-3-yl)carbonyl]-2,4-dioxo-1,4-dihydroquinazolin-3(2H)-yl}-N,N′-dimethylacetamide]
- % inhibition of the angiogenic parameter (dye content) ([3]; 30 mg/kg): 36%
- % inhibition of the inflammatory parameter (mass of the granuloma) ([3]; 30 mg/kg): 36%
- dye content corresponding to the angiogenesis ([3]; 10 or 30 mg/kg, after one week of daily treatment): significantly reduce

SMILES: COc1c(C)c(C(=O)c2ccc3c(c2)c(=O)n(CC(=O)N(C)C)c(=O)n3C)n2ccccc12 [Compound No. 68, 2-{6-[(1-Methoxy-2-methylindolizin-3-yl)carbonyl]-1-methyl-2,4-dioxo-1,4-dihydroquinazolin-3(2H)-yl}-N,N-dimethylacetamide]
- melting point: 276 °C

SMILES: COc1c(C)c(C(=O)c2ccc3c(c2)c(=O)c(C(=O)[O-])cn3C)n2ccccc12.[Na+] [Compound No. 62, Sodium salt of 6-[(1-methoxy-2-methylindolizin-3-yl)carbonyl]-1-methyl-4-oxo-1,4-dihydroquinoline-3-carboxylic acid]
- % inhibition of the angiogenic parameter (dye content) ([3]; 10 mg/kg): 43%
- % inhibition of the inflammatory parameter (mass of the granuloma) ([3]; 10 mg/kg): 38%
